According to ChEMBL document CHEMBL3507680, “University of Dundee, Gates Library screen for HepG2 cell viability”:

test: Human HepG2 cell viability assay in 384 well format; assay type: toxicity, cell-based; design: dose 125 nL, time 70.5 hour; concentration not given beside the values; settings: HepG2 cells, read-out: Inhibition

Point of comparison: `O=C(NC1CCC1)C1CCC2(CN(C(=O)c3ccco3)C2)O1` (stereo not drawn), cytotoxicity at 70.5 h -13.3%. Against it:
- Cc1cccc(CSc2nnc(C)n2CC(N)=O)c1 — lower, -91.2%
- CNC(=O)CNC(=O)CC1C(=O)NCCN1Cc1ccccc1C (stereo not drawn) — higher, -5.79%
- CCOCc1nc2c(c(NC(CC)c3ccnn3C)n1)CCNCC2 (stereo not drawn) — higher, 0.295%
- OC1CCN(Cc2ccc(CNc3ccc(Cl)cn3)cc2)CC1 — higher, -0.577%
- Cc1cccc(CNC(=O)CC2CCN(Cc3ccccn3)CC2)n1 — higher, -1.17%
- O=C1CCOC[C@]2(CN(Cc3ccccc3)C[C@H]2c2cccnc2)N1 — higher, 15.4%
- CN1CCC(N(Cc2ccncc2)Cc2nc3c(s2)CCCC3)CC1 — higher, -11.2%
- Cc1nc(CN(C)C2CCN(Cc3nc(C4CC4)no3)C2)no1 (stereo not drawn) — higher, -1.35%
- COc1cccc(C2CC(=O)Nc3nc(N4CCCCC4)sc32)c1OC (stereo not drawn) — higher, -6.7%
- NS(=O)(=O)c1ccc(NCc2ccccc2F)cc1C(F)(F)F — higher, 1.33%
- CC(C)C1CCN(C(=O)NCC(=O)N(C)CC(F)(F)F)CC1 — higher, 20.8%
- CCN(CC(=O)NC)S(=O)(=O)N1CCCCCC1 — higher, -10.4%
- NC(=O)C1CCN(C(=O)NC2CCN(CC3CCCC3)C2)CC1 (stereo not drawn) — higher, 9.67%
- Cc1ccc(-c2cccc(N3CCC(NC4CCOCC4)CC3)c2)cc1 — higher, -2.04%
- c1cncc(C[C@H]2[C@H](N3CCOCC3)CCN2Cc2nccs2)c1 — higher, -3.76%
- O=C(C[C@@H]1COC[C@H]2CN(Cc3ccccc3)C[C@@H]12)N1CCCC1 — lower, -14.4%
- O=S(=O)(C1CC1)N1CCc2ncnc(-c3ccsc3)c2CC1 — higher, -0.114%
- O=C(c1cnccn1)N1CCCC2(CCN(c3ccccn3)C2)C1 (stereo not drawn) — higher, 19.3%
- CC(C)CCN1CCN(Cc2nc(C3CC3)no2)CC1 — higher, 20.6%
- CN1CCN(C(=O)CCc2cccnc2)c2ccc(F)cc21 — higher, 1.2%
- Cc1nccc(CN2CC[C@H](Oc3cccc(F)c3)[C@@](C)(O)C2)n1 — higher, -3.99%
- CC(=O)N1CCC(NC2(Cc3cc(CC(C)C)on3)COC2)CC1 — higher, 3.96%
- CC(C)(C)c1ncc2c(n1)CN(C(=O)c1ccncc1)C2 — higher, -9.79%
- OC1(Cn2ccc3ncccc32)CCN(Cc2ccccc2F)CC1 — higher, 2.31%
- CCS(=O)(=O)N1CCC2(CN(Cc3ccc(C)o3)C2)C1 — lower, -13.4%
- CSCC(=O)NC1CCN(C(C)c2ccccc2)CC1 (stereo not drawn) — higher, -6.02%
- CN1Cc2c(C(=O)Nc3cccnc3)ncn2-c2ccccc2S1(=O)=O — higher, -8.44%
- COc1ccc(-c2ccnc(N)c2)c(C)c1 — lower, -15.9%
- CCc1ccc(OCC(O)CN2CCC(O)CC2)cc1 (stereo not drawn) — higher, 24.8%
- Cc1cccc(C(=O)Oc2cc(=O)n3cccc(C)c3n2)c1 — higher, -5.1%
- Cc1cc(N2CCC3(CCC(=O)N(CC4CC4)C3)CC2)ncn1 — higher, -7.85%
- CNC(=O)N1CC[C@@H]2CN(Cc3cccnc3)S(=O)(=O)[C@@H]2CC1 — lower, -17.6%
- N#Cc1cccc(N2CCC(CO)(CCCc3ccccc3)CC2)n1 — higher, -4.41%
- Cc1nn(C)c(Cl)c1C1CCCN1C(=O)c1cnccn1 (stereo not drawn) — higher, -7.92%
- CC(=O)N(Cc1ncc(C)o1)C1CCN(CCOc2ccccc2)C1 (stereo not drawn) — higher, 17.4%
- CN(C)c1cncc(-c2ccnc3c2ccn3C)n1 — higher, -0.942%
- O=C1CCC2(CCNCC2)CN1CCCNc1cccnc1 — higher, -0.123%
- COCCN1CCN(c2cccc(C)n2)Cc2ccc(C)nc21 — higher, 2.66%
- Cc1noc(C)c1CN1CCC(c2ccnn2CCO)CC1 — higher, -5.98%
- Cc1cc2nc(C(C)C)cc(N(C)CC3CCCN3C)n2n1 (stereo not drawn) — higher, -10.7%
- CC(=O)N1CCC2(CCN(C(=O)c3ccc(Cl)c(C(F)(F)F)c3)C2)C1 (stereo not drawn) — higher, -11%
- CNc1ncc(CN(C)Cc2cc3n(n2)CCNC3)cn1 — higher, -9%
- COCCC(=O)N1CCC(C(=O)c2cc(C)cnc2N)CC1 — higher, -8.64%
- Cc1cnc(C)c(N2CCC3(CCCN(C4CCOCC4)C3=O)C2)n1 (stereo not drawn) — higher, -8.78%
- CCc1noc(CN(CC)C(=O)C2CC(=O)N(Cc3ccncc3)C2)n1 (stereo not drawn) — higher, 35.2%
- COCC1CC2(CCN(CC3CC3)CC2)CN1Cc1csc(C)n1 (stereo not drawn) — higher, -5.11%
- Cc1nc(CN2CCCC3(CCN(c4cccnc4)C3=O)C2)cs1 (stereo not drawn) — higher, 14.2%
- NC(=O)NC(=O)CCN1CCC(C(=O)c2cc(F)ccc2F)CC1 — higher, -12.1%
- O=C(CNC1CCc2ncnn2C1)N(C1=CCCCC1)C1CC1 (stereo not drawn) — higher, -2.56%
- O=C(O)c1cc(S(=O)(=O)Nc2cccc3c2OCCO3)c(Cl)cc1F — lower, -124%
- O=C(COC1CCCCC1)N1CCN(C(=O)Cc2ccccn2)CC1 — higher, -6.92%
- CN(C)Cc1ccnc(C2CN(Cc3c(F)cccc3F)CCO2)n1 (stereo not drawn) — higher, -6.34%
- CCOC(=O)[C@]12CCCN(Cc3nccs3)C[C@H]1CN(C(C)C)C2 — higher, -3.32%
- CC(C)COc1cncc(NCc2nnc3ccccn23)n1 — higher, -3.83%
- CCn1ccnc1CN1CCCN(C(=O)c2scnc2C)CC1 — higher, -11.5%
- CCn1nc(C)cc1C(=O)OCCNC(=O)c1ccccc1 — higher, -0.786%
- CN(Cc1ccco1)C(=O)c1ccc(=O)n(C)c1 — higher, -6.1%
- Nc1nc(NCCc2[nH]nc3c2CCCC3)cc(N2CCOCC2)n1 — higher, -6.18%
- COCCN(Cc1nccs1)C(=O)c1cc(-c2ccc(C)s2)n[nH]1 — higher, -5.54%
- CC(O)CCN(C)C(=O)Nc1cc(F)cc(Br)c1 (stereo not drawn) — higher, 1.72%
- CCc1nnsc1C(=O)N1CCCC(COc2ccc(F)cc2)C1 (stereo not drawn) — higher, -4.43%
- Cc1noc2nc(C3CCN(Cc4ccccn4)CC3)cc(C(F)F)c12 — higher, -2.48%
- c1csc(-c2noc(CN3CCCC3Cn3cccn3)n2)c1 (stereo not drawn) — higher, -2.35%
- COCCCNc1ncnc2c1CCN(C(=O)CC1C=CCC1)CC2 (stereo not drawn) — higher, -5.04%
- CC1=N[C@@]2(CC[C@@H]3CN(C(=O)Nc4ccc(F)cc4)C[C@@H]32)C(=O)N1C — lower, -101%
- Cc1cnn(CCNCC(O)COc2cccc(C(F)(F)F)c2)c1 (stereo not drawn) — higher, 0.0235%
- O=C(NCCN1CCOCC1)c1cnc(-c2ccccc2F)s1 — higher, -3.87%
- c1cncc(-c2nccc(CN3CCC(N4CCCCC4)CC3)n2)c1 — higher, 18.5%
- Cc1cnn(CCNCC(=O)N2CCN(c3ccccc3)CC2)c1 — higher, 21.4%
- COCCN1C(=O)CC(c2cccnc2)C12CCN(C)CC2 (stereo not drawn) — higher, 0.172%
- Cc1cc(C)c(CNC(=O)NCC(O)c2ccc(Cl)cc2)c(=O)[nH]1 (stereo not drawn) — higher, -4.37%
- Cc1csc([C@@H]2C[C@@H]3CCN(C(=O)c4ccnnc4)C[C@H]3O2)n1 — higher, -3.66%
- COCCNC(=O)NCCS(=O)(=O)N1CCN(c2cccc(C)c2)CC1 — higher, -12.5%
- COCC(=O)NCC[C@H]1CC(C)(C)Oc2ccc(OC)cc21 — higher, -2.28%
- CCCNC(=O)Cn1nc(C(C)C)c2cnn(C(C)(C)C)c2c1=O — higher, -0.765%
- O=C(Nc1cc(Cl)ccc1N1CCCCC1)c1ccccn1 — higher, 7.77%
- CS(=O)(=O)NCC1CCN(Cc2cc3ccccc3[nH]c2=O)C1 (stereo not drawn) — higher, -3.86%
- O=C(NCCn1nc2ccccn2c1=O)c1cccc2[nH]ncc12 — lower, -16.6%
- CCn1nccc1CN(C)C(=O)Cn1nc(C)cc1C — higher, 16.1%
- c1ccc2oc(CN3CCCC3c3noc(C4CC4)n3)nc2c1 (stereo not drawn) — higher, -11.3%
- COc1ccccc1C(=O)Nc1ccc([C@@H](O)[C@H]2COCC(=O)N2)cc1 — higher, -4.28%
- CCCC(=O)N(CC)C(c1cccnc1)c1ccc2c(c1)CCO2 (stereo not drawn) — higher, -4.67%
- COCCOCC(=O)Nc1ccnn1-c1ccc(Cl)cc1 — higher, -0.967%
- CCCNC(=O)Cn1cc(C#N)c(=O)c2cc(Br)ccc21 — higher, -8.09%
- CCN1CCN(c2ncc(-c3cc(C)no3)c(-c3ccoc3C)n2)CC1 — higher, -2.3%
- O=C(C1=CCCC1)N1CC[C@]2(C[C@H](OCc3cccnc3)CO2)C1 — higher, -12.5%
- CCc1cc(NCC(N)=O)nc(N2CCCCC2)n1 — higher, -8.82%
- COC(=O)c1cc(OC)ccc1NCC(=O)NCC(=O)N1CCCC1 — lower, -17.6%
- CC(CS(C)(=O)=O)N(C(=O)Nc1ccc(F)cc1F)C1CC1 (stereo not drawn) — higher, -1.48%
- CCn1cnnc1CNC(=O)NC(C)c1ccc(Cl)s1 (stereo not drawn) — higher, -0.949%
- Cn1cccc1C(=O)NCc1cn2c(n1)CN(c1ncccn1)CC2 — higher, -12.8%
- CCCNC(=O)c1cc2c(s1)CCN2C(=O)c1ccccc1 — higher, 14.2%
- O=C(c1cn(-c2ccc(F)cc2)nn1)N1CCCC(n2cccn2)C1 (stereo not drawn) — higher, -1.26%
- CN(CCc1ccccn1)C(=O)CCC1CCCN(S(C)(=O)=O)C1 (stereo not drawn) — higher, 3.47%
- NC(=O)CNC1(c2ccc(Br)cc2)CCOCC1 — higher, 22.4%
- Cc1cc(N2CCCN(C(=O)Cc3ccc(O)c(Cl)c3)CC2)ccn1 — higher, -4.07%
- Cc1nn(C)c2nc(N(Cc3ccncc3)CC3CCCO3)sc12 (stereo not drawn) — higher, -5.1%
- c1ncn(CC2CCCN(Cc3nc(-c4ccoc4)no3)C2)n1 (stereo not drawn) — higher, -10.5%
- COc1ccccc1OCc1cc(C(=O)NC[C@@H]2CCCN2)n[nH]1 — higher, -1.83%
- CN(C)C(=O)CCc1cncc(C2CCCN2Cc2ccccn2)n1 (stereo not drawn) — higher, -6.05%
- Cc1cnc(C(=O)N2CCC3(CC2)CC(c2ccncc2)C(=O)N3)cn1 (stereo not drawn) — higher, -5.53%
- CCc1nc(NC(=O)Cc2csc(-c3nnc[nH]3)n2)sc1C — higher, -11.9%
- COCCN1CCN(S(=O)(=O)C2CC2)Cc2cccnc21 — higher, -5.48%
- Cc1ncsc1-c1nnc(C2CCN(Cc3ccccc3Cl)CC2)o1 — higher, -0.461%
- Cc1ccc(CNC(=O)NCc2csc(C)n2)cn1 — lower, -21.2%
- Cc1n[nH]cc1CNC1CCN(c2cccc(C(F)(F)F)c2)CC1 — higher, 2.2%
- Cc1ccc(OCC(O)CN2CCC(Cn3cc(C)cn3)CC2)cc1 (stereo not drawn) — higher, -0.66%
- Cc1nc(O)cc(CN2CC=C(c3cnn(-c4ccccc4)c3)CC2)n1 — higher, 14.1%
- CCSc1ncc(CN(Cc2cnn(C)c2)CC(C)C)cn1 — higher, -4.66%
- COCC1CN(S(=O)(=O)c2ccccc2)Cc2ncnn2C1 (stereo not drawn) — higher, -6.59%
- Cc1noc(C)c1CCCNC(=O)C1CCCN(C(=O)C2CC2)C1 (stereo not drawn) — higher, -0.841%
- N#Cc1cccc(OCCN2CCCC2C(=O)N2CCSCC2)c1 (stereo not drawn) — higher, 3.62%
